Experimental data taken from patent publication US7666890B2, “Synthesis and herbicidal activity of 1- (2-substituted benzo[d]thiazol-5-yl)-1H-1,2,4-triazol-5(4H)-one derivatives” (Huazhong Normal University, priority 2007, dated 2010).

Legend:
Assay in all cases: Test of herbicidal activities (greenhouse pot method)
Assay type in all cases: in vivo
Conditions in all cases: single dose 300 g ai./h, treated before/after germination, 15 days later, greenhouse pot
Amaranthus retroflexus = system: Amaranthus retroflexus
Procedure: (§1) Garden soil was collected from regions where no pesticide is used and mixed uniformly with mountain soil and organic humus soil at a volume ratio of 1:1:1.
(§2) Multiple flowerpots each having a diameter of 9.5 cm and a depth of 8 cm were filled with the soil mixture to 3/4 volume. After water was added to the soil and the soil was completely wet, seeds of three grass weeds and three broadleaf weeds were inserted into the flowerpots (10-15 seeds for each weed). After seeding, the seeds were covered with fine oil mixed with sand and having a thickness of 1-3 cm. After the soil absorbed enough water and became saturated, excess water at the bottom of the flowerpot was drained, and the seeds were placed in a greenhouse for growth.
(§3) The weeds were watered every day so as to keep relative humidity of the soil at approximately 80%, growing temperature of 15-30° C., and air humidity above 50%. As the grass weeds grew to a 2-leaf stage and the broadleaf weeds was in a leaf period, spraying operation […] was performed on the stems and leafs. Planting before germination was performed before spraying. Soil processing was performed before the seeds of the weeds emerged.
(§4) Six target weeds comprising three grass weeds: Echinochloa crusgalli, Digiatria sanguinalis, Setaria viridis, along with three broadleaf weeds: Brassica juncea, Amaranthus retroflexus, Chenopodium album were treated before/after germination using a so-called “greenhouse pot” method with a single dose. A treating dose was 300 g ai./h. The process was repeated three times, and a blank control was used.
(§5) A 3WPSHZ-500 type automatic spraying tower with a spraying area of 0.132 m^2, a spray volume of 10 mL, working pressure of 0.2 MPa, and a liquid volume of 40% of maximum was used. After treatment, the weeds were placed in a greenhouse at a temperature of 15-30° C. Reaction symptoms of the weeds were regularly observed, and 15 days later, five reaction levels were determined according to the following inhibition intervals: 90≦A≦100%; 80≦B<90%, 60≦C<80%; 50≦D<60%, E<50%.

Brassica juncea = system: Brassica juncea
Procedure: as §1, §2, §3, §4, §5

Chenopodium album = system: Chenopodium album
Procedure: as §1, §2, §3, §4, §5

Digiatria sanguinalis = system: Digiatria sanguinalis
Procedure: as §1, §2, §3, §4, §5

Echinochloa crusgalli = system: Echinochloa crusgalli
Procedure: as §1, §2, §3, §4, §5

Setaria viridis = system: Setaria viridis
Procedure: as §1, §2, §3, §4, §5

SMILES: CCOC(=O)CSc1nc2cc(-n3nc(C(F)(F)F)n(C(F)F)c3=O)c(F)cc2s1 [Compound 122]
- Herbicidal activity Amaranthus retroflexus (inhibition level) (Amaranthus retroflexus): E (E < 50%)
- Herbicidal activity Brassica juncea (inhibition level) (Brassica juncea): E (E < 50%)
- Herbicidal activity Chenopodium album (inhibition level) (Chenopodium album): E (E < 50%)
- Herbicidal activity Digiatria sanguinalis (inhibition level) (Digiatria sanguinalis): E (E < 50%)
- Herbicidal activity Echinochloa crusgalli (inhibition level) (Echinochloa crusgalli): C (60 ≦ C < 80%)
- Herbicidal activity Setaria viridis (inhibition level) (Setaria viridis): E (E < 50%)

SMILES: CCCSc1nc2cc(-n3nc(C(F)(F)F)n(C(F)F)c3=O)c(Br)cc2s1 [Compound 129]
- Herbicidal activity Amaranthus retroflexus (inhibition level) (Amaranthus retroflexus): A (90 ≦ A ≦ 100%)
- Herbicidal activity Brassica juncea (inhibition level) (Brassica juncea): C (60 ≦ C < 80%)
- Herbicidal activity Chenopodium album (inhibition level) (Chenopodium album): A (90 ≦ A ≦ 100%)
- Herbicidal activity Digiatria sanguinalis (inhibition level) (Digiatria sanguinalis): A (90 ≦ A ≦ 100%)
- Herbicidal activity Echinochloa crusgalli (inhibition level) (Echinochloa crusgalli): A (90 ≦ A ≦ 100%)
- Herbicidal activity Setaria viridis (inhibition level) (Setaria viridis): C (60 ≦ C < 80%)

SMILES: Cc1nn(-c2cc3nc(SCc4ccccc4)sc3cc2F)c(=O)n1C [Compound 30]
- Herbicidal activity Amaranthus retroflexus (inhibition level) (Amaranthus retroflexus): A (90 ≦ A ≦ 100%)
- Herbicidal activity Brassica juncea (inhibition level) (Brassica juncea): D (50 ≦ D < 60%)
- Herbicidal activity Chenopodium album (inhibition level) (Chenopodium album): C (60 ≦ C < 80%)
- Herbicidal activity Digiatria sanguinalis (inhibition level) (Digiatria sanguinalis): B (80 ≦ B < 90%)
- Herbicidal activity Echinochloa crusgalli (inhibition level) (Echinochloa crusgalli): E (E < 50%)
- Herbicidal activity Setaria viridis (inhibition level) (Setaria viridis): B (80 ≦ B < 90%)

SMILES: CCOC(=O)C(C)Sc1nc2cc(-n3nc(C)n(C(F)F)c3=O)c(Cl)cc2s1 (stereo not drawn) [Compound 95]
- Herbicidal activity Amaranthus retroflexus (inhibition level) (Amaranthus retroflexus): A (90 ≦ A ≦ 100%)
- Herbicidal activity Brassica juncea (inhibition level) (Brassica juncea): D (50 ≦ D < 60%)
- Herbicidal activity Chenopodium album (inhibition level) (Chenopodium album): B (80 ≦ B < 90%)
- Herbicidal activity Digiatria sanguinalis (inhibition level) (Digiatria sanguinalis): A (90 ≦ A ≦ 100%)
- Herbicidal activity Echinochloa crusgalli (inhibition level) (Echinochloa crusgalli): A (90 ≦ A ≦ 100%)
- Herbicidal activity Setaria viridis (inhibition level) (Setaria viridis): A (90 ≦ A ≦ 100%)

SMILES: Cc1nn(-c2cc3nc(S(=O)(=O)Cc4cccc(Cl)c4)sc3cc2F)c(=O)n1C [Compound 36]
- Herbicidal activity Amaranthus retroflexus (inhibition level) (Amaranthus retroflexus): D (50 ≦ D < 60%)
- Herbicidal activity Brassica juncea (inhibition level) (Brassica juncea): C (60 ≦ C < 80%)
- Herbicidal activity Chenopodium album (inhibition level) (Chenopodium album): D (50 ≦ D < 60%)
- Herbicidal activity Digiatria sanguinalis (inhibition level) (Digiatria sanguinalis): C (60 ≦ C < 80%)
- Herbicidal activity Echinochloa crusgalli (inhibition level) (Echinochloa crusgalli): C (60 ≦ C < 80%)
- Herbicidal activity Setaria viridis (inhibition level) (Setaria viridis): D (50 ≦ D < 60%)

SMILES: CCC[S+]([O-])c1nc2cc(-n3nc(C)n(C(F)F)c3=O)c(F)cc2s1 (stereo not drawn) [Compound 121]
- Herbicidal activity Amaranthus retroflexus (inhibition level) (Amaranthus retroflexus): D (50 ≦ D < 60%)
- Herbicidal activity Brassica juncea (inhibition level) (Brassica juncea): C (60 ≦ C < 80%)
- Herbicidal activity Chenopodium album (inhibition level) (Chenopodium album): A (90 ≦ A ≦ 100%)
- Herbicidal activity Digiatria sanguinalis (inhibition level) (Digiatria sanguinalis): C (60 ≦ C < 80%)
- Herbicidal activity Echinochloa crusgalli (inhibition level) (Echinochloa crusgalli): E (E < 50%)
- Herbicidal activity Setaria viridis (inhibition level) (Setaria viridis): D (50 ≦ D < 60%)

SMILES: CCOC(=O)C(C)[S+]([O-])c1nc2cc(-n3nc(C)n(C(F)F)c3=O)c(Br)cc2s1 (stereo not drawn) [Compound 116]
- Herbicidal activity Amaranthus retroflexus (inhibition level) (Amaranthus retroflexus): B (80 ≦ B < 90%)
- Herbicidal activity Brassica juncea (inhibition level) (Brassica juncea): A (90 ≦ A ≦ 100%)
- Herbicidal activity Chenopodium album (inhibition level) (Chenopodium album): B (80 ≦ B < 90%)
- Herbicidal activity Digiatria sanguinalis (inhibition level) (Digiatria sanguinalis): C (60 ≦ C < 80%)
- Herbicidal activity Echinochloa crusgalli (inhibition level) (Echinochloa crusgalli): D (50 ≦ D < 60%)
- Herbicidal activity Setaria viridis (inhibition level) (Setaria viridis): B (80 ≦ B < 90%)

SMILES: Cc1nn(-c2cc3nc(S(=O)(=O)Cc4ccc(Cl)cc4)sc3cc2Cl)c(=O)n1C(F)F [Compound 41]
- Herbicidal activity Amaranthus retroflexus (inhibition level) (Amaranthus retroflexus): C (60 ≦ C < 80%)
- Herbicidal activity Brassica juncea (inhibition level) (Brassica juncea): C (60 ≦ C < 80%)
- Herbicidal activity Chenopodium album (inhibition level) (Chenopodium album): D (50 ≦ D < 60%)
- Herbicidal activity Digiatria sanguinalis (inhibition level) (Digiatria sanguinalis): B (80 ≦ B < 90%)
- Herbicidal activity Echinochloa crusgalli (inhibition level) (Echinochloa crusgalli): D (50 ≦ D < 60%)
- Herbicidal activity Setaria viridis (inhibition level) (Setaria viridis): C (60 ≦ C < 80%)

SMILES: CCOC(=O)C(C)S(=O)(=O)c1nc2cc(-n3nc(C)n(C(F)F)c3=O)c(Br)cc2s1 (stereo not drawn) [Compound 59]
- Herbicidal activity Amaranthus retroflexus (inhibition level) (Amaranthus retroflexus): A (90 ≦ A ≦ 100%)
- Herbicidal activity Brassica juncea (inhibition level) (Brassica juncea): A (90 ≦ A ≦ 100%)
- Herbicidal activity Chenopodium album (inhibition level) (Chenopodium album): B (80 ≦ B < 90%)
- Herbicidal activity Digiatria sanguinalis (inhibition level) (Digiatria sanguinalis): C (60 ≦ C < 80%)
- Herbicidal activity Echinochloa crusgalli (inhibition level) (Echinochloa crusgalli): D (50 ≦ D < 60%)
- Herbicidal activity Setaria viridis (inhibition level) (Setaria viridis): C (60 ≦ C < 80%)

SMILES: Cc1ccc(CS(=O)(=O)c2nc3cc(-n4nc(C)n(C(F)F)c4=O)c(F)cc3s2)cc1 [Compound 47]
- Herbicidal activity Amaranthus retroflexus (inhibition level) (Amaranthus retroflexus): A (90 ≦ A ≦ 100%)
- Herbicidal activity Brassica juncea (inhibition level) (Brassica juncea): A (90 ≦ A ≦ 100%)
- Herbicidal activity Chenopodium album (inhibition level) (Chenopodium album): C (60 ≦ C < 80%)
- Herbicidal activity Digiatria sanguinalis (inhibition level) (Digiatria sanguinalis): A (90 ≦ A ≦ 100%)
- Herbicidal activity Echinochloa crusgalli (inhibition level) (Echinochloa crusgalli): B (80 ≦ B < 90%)
- Herbicidal activity Setaria viridis (inhibition level) (Setaria viridis): C (60 ≦ C < 80%)
